In ChEMBL document CHEMBL1240466, “New substituted 4-arylaminoquinazolines as potent inhibitors of breast tumor cell lines: in vitro and docking experiments” (Eur J Med Chem, 2010):
The source made the active and inactive calls.

Tests used:
Assay type in all cases: functional, cell-based
PC-3 = assay: Cytotoxicity against human PC3 cells by spectrophotometry
MCF7 = assay: Cytotoxicity against human MCF7 cells by spectrophotometry
UACC-62 = assay: Cytotoxicity against human UACC62 cells by spectrophotometry
K562 = assay: Cytotoxicity against human K562 cells by spectrophotometry
NCI/ADR-RES = assay: Cytotoxicity against human NCI/ADR-RES cells by spectrophotometry
OVCAR-3 = assay: Cytotoxicity against human OVCAR-3 cells by spectrophotometry
NCI-H460 = assay: Cytotoxicity against human NCI-H460 cells by spectrophotometry
HT-29 = assay: Cytotoxicity against human HT-29 cells by spectrophotometry

Measured: Activity

c1ccc(Nc2ncnc3cc4c(cc23)OCO4)cc1
active: all assays above

Cc1cccc(Nc2ncnc3cc4c(cc23)OCO4)c1
active: all assays above
